Source: PMC10790790, “Viscosity-dependent determinants of Campylobacter jejuni impacting the velocity of flagellar motility” (mBio, 2023)

Legend:
[1] = biological target: T1, WspR (Pseudomonas aeruginosa, UniProt Q9HXT9); assay: DRaCALA on nitrocellulose; format: biochemical; settings: labelled compound ([32P]c-di-GMP made by WspR); 10 mM Tris-HCl pH 8, 100 mM NaCl, 5 mM MgCl2
T1 construct: codon 2 to penultimate codon, from pVL791, C-terminal Myc-6xHis tag kept, pBAD/myc-HisA (pDAR6535), E. coli Top10

[2] = biological target: T2, CbrR (Campylobacter jejuni, UniProt Q0PAM5); assay: DRaCALA on nitrocellulose; format: binding; settings: 10 mM Tris-HCl pH 8, 100 mM NaCl, 5 mM MgCl2
T2 construct: codon 2 to penultimate codon, C-terminal Myc-6xHis tag kept, pBAD/myc-HisA (pDAR6203), E. coli Top10

[3] = biological target: T1, WspR; assay: DRaCALA on nitrocellulose; also TLC of c-di-GMP synthesis; format: biochemical; settings: labelled compound ([alpha-32P]GTP); 10 mM Tris-HCl pH 8, 100 mM NaCl, 5 mM MgCl2 (DRaCALA); 10 mM MgCl2, room temperature (TLC)

T1 sequence (Q9HXT9 entry or part of it): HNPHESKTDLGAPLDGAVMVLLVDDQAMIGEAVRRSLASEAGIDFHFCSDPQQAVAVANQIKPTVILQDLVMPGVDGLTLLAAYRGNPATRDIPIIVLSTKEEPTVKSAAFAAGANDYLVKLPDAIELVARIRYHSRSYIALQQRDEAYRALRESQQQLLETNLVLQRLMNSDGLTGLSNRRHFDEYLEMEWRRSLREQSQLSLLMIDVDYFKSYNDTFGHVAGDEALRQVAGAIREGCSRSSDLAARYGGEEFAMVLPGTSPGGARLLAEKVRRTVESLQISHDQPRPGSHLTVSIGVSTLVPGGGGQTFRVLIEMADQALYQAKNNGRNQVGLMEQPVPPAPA
T2 sequence (Q0PAM5 entry or part of it): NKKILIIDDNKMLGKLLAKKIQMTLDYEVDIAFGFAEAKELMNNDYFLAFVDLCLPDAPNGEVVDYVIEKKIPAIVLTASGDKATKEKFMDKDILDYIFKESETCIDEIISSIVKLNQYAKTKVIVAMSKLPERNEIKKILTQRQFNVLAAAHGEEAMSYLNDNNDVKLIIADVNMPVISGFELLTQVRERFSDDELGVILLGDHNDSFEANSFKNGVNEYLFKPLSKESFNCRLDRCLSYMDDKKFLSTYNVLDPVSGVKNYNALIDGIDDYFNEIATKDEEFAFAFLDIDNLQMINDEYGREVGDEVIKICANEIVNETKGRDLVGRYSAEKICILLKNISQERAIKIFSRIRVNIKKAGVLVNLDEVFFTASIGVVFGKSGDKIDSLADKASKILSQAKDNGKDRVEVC

| Compound | DRaCALA on nitrocellulose [1] | DRaCALA on nitrocellulose ([2]; labelled compound ([32P]c-di-GMP made by WspR)) | DRaCALA on nitrocellulose ([2]; labelled compound ([alpha-32P]GTP)) | DRaCALA on nitrocellulose; also TLC of c-di-GMP synthesis [3] |
| --- | --- | --- | --- | --- |
| Nc1nc2c(ncn2[C@@H]2O[C@@H]3COP(=O)(O)O[C@H]4[C@@H](O)[C@H](n5cnc6c(=O)[nH]c(N)nc65)O[C@@H]4COP(=O)(O)O[C@H]3[C@H]2O)c(=O)[nH]1 [c-di-GMP] | recombinant WspR and CbrR bound both GTP and c-di-GMP, but VidA and VidB did not | recombinant WspR and CbrR bound both GTP and c-di-GMP, but VidA and VidB did not | – | – |
| Nc1nc2c(ncn2[C@@H]2O[C@H](COP(=O)(O)OP(=O)(O)OP(=O)(O)O)[C@@H](O)[C@H]2O)c(=O)[nH]1 [GTP] | – | – | recombinant WspR and CbrR bound both GTP and c-di-GMP, but VidA and VidB did not | recombinant WspR and CbrR bound both GTP and c-di-GMP, but VidA and VidB did not |
